Reference: US20220340976A1, “RAPID PREDICTION OF DRUG RESPONSIVENESS” (THE BROAD INSTITUTE, INC., priority 2019, published 2022)
Values joined by “and” are separate entries in the source; they are usually repeats but may differ in a detail not shown here. Equal entries are not always repeated. “Also recorded” adds a separate entry of the source.

Experiments:
[1] = system: pools of well-characterized cancer cell lines; assay: MIX-Seq: scRNA-seq transcriptional response profiling of drug-treated cell line pools; type: cell-based, human; conditions: for shared viability-related signature (cell-cycle genes): across compounds, 24 hours post-treatment
Protocol: Cell line pools were made in sets of 25 cell lines. These 25 cell line pools were chosen based on doubling time and were grown in RPMI in the absence of phenol red and with 10% FBS. Cell lines were then washed with 10 mLs of PBS, and trypsinized with 1 mL trypsin which was then removed. Ten mLs of RPMI media were added to the cells post trypsinization and resuspended. Cells were then counted by a Nexcelom cellometer using 10 uL of cell suspension and 10 ul of Trypan blue. Equal numbers of cells per cell line were mixed together and spun down at 1,250 RPM for 5 minutes. Media was aspirated and the cells were resuspended in Sigma Cell Freezing media and frozen in 1 mL aliquots. This process was repeated for all of the 25 cell line pools. For MIX-Seq experiments involving larger pools, multiple 25 cell line pools were thawed in RPMI with 10% FBS, spun down and resuspended in 5 mLs of RPMI media. Cells were then counted and equal numbers were combined together on the day of plating to form larger pools of up to ˜100 cell lines.
For drug treatment experiments, cell line pools were cultured in RPMI containing 10% fetal bovine serum, in the absence of phenol red and penicillin/streptomycin. Cell line pools were validated as Mycoplasma free prior to initiating the experiment. Cell line pools were plated at 200,000 cells per well in 6 well plates containing 2 mL of RPMI culture media described above. […] Cell pools were plated ˜16-20 hours prior to drug treatment. Cells were treated with the described drugs or vehicle (DMSO) with a 0.2% final media DMSO concentration.
Generally cells were harvested after drug treatment using standard cell culture methods. Briefly, after drug treatment cells that were in suspension (presumably containing dead cells from drug treatment) were collected and reserved for addition to the adherent cell fraction. Adherent cells were washed once with 1×PBS, trypsinized in 1 mL trypsin, incubated for 3-7 minutes at 37 C, and then trypsin inactivated with 1 mL growth media. For Cell Hashing, cells were treated with TrypLE Express (ThermoFisher) instead of trypsin to reduce the amount of cell surface proteins digested that may affect the binding of Cell Hashing antibodies.
After trypsinization, adherent and suspension cells were combined for each treatment, pelleted, and resuspended in Cell Capture Buffer (lx PBS with 0.04% BSA). Cells were counted (including trypan blue non-viable cells) and resuspended at a concentration of 1,000 cells per microliter for standard loading on the Chromium Controller (10× Genomics), or at 1,500 cells per microliter for “super loaded” samples. Up to 40,000 cells were loaded per 10× channel for “super loaded” samples, with expected recovery of up to 20,000 cells per channel. Cell suspensions were captured on a 10× Chromium controller using Single Cell 3′ reagent chemistries (either version 2 or and version 3 reagents) FIG. 26.
Sequencing data were processed using 10× Cell Ranger software, run using the Cumulus cloud-based analysis framework (Li et al. 2019). Initial experiments were done with 10× Single Cell 3′ v2 chemistry, and were processed using version 2 of the Cell Ranger software. In later experiments v3 chemistry and the corresponding version 3 of Cell Ranger were used. Reads were aligned to the hg19 reference genome.
To estimate the average transcriptional response of each cell line to a perturbation, the data were first ‘sum-collapsed’—summing read counts across cells for each cell line and treatment condition—to produce a bulk RNA-seq style read counts profile for each sample (Crowell et al. 2019; Lun & Marioni 2017). […]

[2] = system: pools of cancer cell lines; assay: Cell cycle phase analysis inferred from single-cell transcriptional profiles (MIX-Seq); type: cell-based, human; conditions: for change in proportion of cells in G2/M phase / change in proportion of cells in S phase: 24 hours post-treatment, average weighted by drug sensitivity
Protocol: Cell cycle phase classification was performed using the Seurat function CellCycleScoring, using the S- and G2M-phase gene lists reported in Tirosh et al. 2016. The change in proportion of cells in each phase between treatment and control conditions for each cell line, along with associated confidence intervals, were estimated using the prop.test R function. For FIG. 4C, aggregate scores were computed representing how each compound altered the cell cycle composition by computing weighted averages across cell lines of the change in proportion of cells in each phase, where the weights were determined by the cell lines' measured drug sensitivity (1 minus AUC, bounded between 0 and 1).
For example, characterizing the cell cycle effects of a perturbation yields important information about its MoA. Such measurements have heretofore typically been made using a FACS-based assay, which must be performed on each sample independently and cannot be used to relate cell cycle effects post hoc to other phenotypes without advanced planning. Using MIX-Seq, such measurements can be made in parallel across a pool of cell lines, inferring the cell cycle phase of each cell from its transcriptional profile (Tirosh et al. 2016).
Next, the effects of each compound on the cell cycle were systematically assessed (see Example 1 above). […] Two notable exceptions were the DNA-damaging agent gemcitabine and the CHEK1/2 inhibitor prexasertib.

[3] = system: cancer cell lines; conditions: GDSC and PRISM drug sensitivity data; cited from earlier work
[4] = system: pools of cancer cell lines; assay: Single-cell heterogeneity analysis of drug responses (clustering of scRNA-seq profiles); type: cell-based, human; conditions: of the 24 cell lines in the pool, 24 hours after treatment
Excerpt: Specifically, the edgeR quasi-likelihood approach was used (Lun et al. 2016), following the pipeline in Soneson et al. 2018, with the cell detection rate (the fraction of genes with non-zero reads detected) included as a covariate.
To identify subpopulations of bortezomib treated cells (FIGS. 4D-4F), Seurat's default methods were used to normalize the data, detect variable genes, and compute PCs (using 5000 most variable genes, and 50 PCs). Seurat's default clustering methods were then used to cluster cells for each cell line (using the 20 nearest neighbors, and a clustering resolution parameter of 0.25).
To identify sub-populations of cells from a given cell line in a consistent fashion across baseline and treatment conditions (for analysis and presentation in FIG. 19), the following procedure was employed. After restricting to cells from the target cell line, the scTransform method (Hafemeiester et al. 2019) was used to normalize the data, identify 5,000 variable genes, and regress out experimental condition as a covariate to align clusters across conditions. Seurat's default clustering methods (using the top 10 PCs, 20 nearest neighbors, and a clustering resolution parameter of 0.25) were then used to identify clusters jointly across treated and control cells.

[5] = 24 hours post-treatment (FIGS. 9B, 9C)

## CC(C)(C)c1nc(-c2cccc(NS(=O)(=O)c3c(F)cccc3F)c2F)c(-c2ccnc(N)n2)s1 [dabrafenib]
[1]; BRAF-mutant melanoma cell lines, 24 hour post-treatment
  variability of transcriptional responses among sensitive cell lines: substantial variation

## COc1cccc(OCCCN)c1-c1cc(Nc2cnc(C#N)cn2)n[nH]1 [prexasertib]
[2]
  change in proportion of cells in G2/M phase: slightly increased the fraction of G2/M cells
  change in proportion of cells in S phase: decreased the proportion of S-phase cells
[1]
  shared viability-related signature (cell-cycle genes): shared signature was also apparent

## CO[C@H]1C[C@@H]2CC[C@@H](C)[C@@](O)(O2)C(=O)C(=O)N2CCCC[C@H]2C(=O)O[C@H]([C@H](C)C[C@@H]2CC[C@@H](OCCO)[C@H](OC)C2)CC(=O)[C@H](C)/C=C(\C)[C@@H](O)[C@@H](OC)C(=O)[C@H](C)C[C@H](C)/C=C/C=C/C=C/1C [everolimus]
[1]; [5]
  gene sets enriched in across-cell-line average transcriptional response: mTOR signaling was the top down-regulated gene set

## CC1(C)CCC(c2ccc(Cl)cc2)=C(CN2CCN(c3ccc(C(=O)NS(=O)(=O)c4ccc(N[C@H](CCN5CCOCC5)CSc5ccccc5)c(S(=O)(=O)C(F)(F)F)c4)cc3)CC2)C1 [navitoclax]
[3]
  long-term viability response across cell lines: strong selective viability responses
[1]; 6 and/or 24 hours post-treatment
  robust transcriptional response signature: did not produce strong and/or selective transcriptional responses; also recorded: did not produce robust transcriptional response signatures; also recorded: a robust transcriptional response to navitoclax was not observed

## Cc1sc2c(c1C)C(c1ccc(Cl)cc1)=N[C@@H](CC(=O)OC(C)(C)C)c1nnc(C)n1-2 [JQ-1]
[1]
  shared viability-related signature (cell-cycle genes): shared signature was also apparent

## CC(C)C[C@H](NC(=O)[C@H](Cc1ccccc1)NC(=O)c1cnccn1)B(O)O [bortezomib]
[4]
  number of cell lines showing a bimodal response: 10 and 9
[1]; 6 hours post-treatment (FIG. 9A)
  gene sets enriched in across-cell-line average transcriptional response: strong up-regulation of protein folding and heat-shock response pathways
[1]
  shared viability-related signature (cell-cycle genes): shared signature was also apparent

## COc1ccc(C2=NC(c3ccc(Cl)cc3)C(c3ccc(Cl)cc3)N2C(=O)N2CCNC(=O)C2)c(OC(C)C)c1 (centres unmarked) [nutlin]
[2]; pool of 24 cell lines, TP53 WT vs TP53 mutant
  change in proportion of cells in G0/G1: pronounced G0/G1-arrest phenotype selectively among the TP53 WT cell lines; also recorded: elicits G1-arrest selectively among the TP53 WT cell lines
[1]; TP53 WT cell lines (7) in a pool of 24 cell lines
  average drug-induced changes in gene expression for each cell line: robust response; also recorded: strong gene expression changes
[1]; among TP53 WT cell lines
  gene set enrichment analysis of average transcriptional response, down-regulated: down-regulation of cell cycle processes
  gene set enrichment analysis of average transcriptional response, up-regulated: clear up-regulation of genes in the TP53 downstream pathway
[1]; cell lines harboring TP53 mutations (n=17) in a pool of 24 cell lines
  average drug-induced changes in gene expression for each cell line: only minimal changes; also recorded: weak gene expression changes

## Nc1ccn([C@@H]2O[C@H](CO)[C@@H](O)C2(F)F)c(=O)n1 [gemcitabine]
[2]
  change in proportion of cells in G2/M phase: decreased the proportion of cells in G2/M
  change in proportion of cells in S phase: increase in S-phase cells
[1]; [5]
  gene sets enriched in across-cell-line average transcriptional response: altered expression of apoptosis-related genes
[1]
  shared viability-related signature (cell-cycle genes): shared signature was also apparent
